The values that follow come from US20260184708A1, “PYRIDAZINONES AND METHODS OF USE THEREOF” (GFB (ABC), LLC, priority 2017, published 2026).

For one experiment, the target named is T1, TRPC4 (Homo sapiens, UniProt Q9UBN4).
T1 construct: expressed in transfected cells; host or cells: HEK-TREx (HekTrex-293), cell line ICLN-1694, tetracycline-induced
T1 sequence (Q9UBN4 1-982 isoform Q9UBN4-5): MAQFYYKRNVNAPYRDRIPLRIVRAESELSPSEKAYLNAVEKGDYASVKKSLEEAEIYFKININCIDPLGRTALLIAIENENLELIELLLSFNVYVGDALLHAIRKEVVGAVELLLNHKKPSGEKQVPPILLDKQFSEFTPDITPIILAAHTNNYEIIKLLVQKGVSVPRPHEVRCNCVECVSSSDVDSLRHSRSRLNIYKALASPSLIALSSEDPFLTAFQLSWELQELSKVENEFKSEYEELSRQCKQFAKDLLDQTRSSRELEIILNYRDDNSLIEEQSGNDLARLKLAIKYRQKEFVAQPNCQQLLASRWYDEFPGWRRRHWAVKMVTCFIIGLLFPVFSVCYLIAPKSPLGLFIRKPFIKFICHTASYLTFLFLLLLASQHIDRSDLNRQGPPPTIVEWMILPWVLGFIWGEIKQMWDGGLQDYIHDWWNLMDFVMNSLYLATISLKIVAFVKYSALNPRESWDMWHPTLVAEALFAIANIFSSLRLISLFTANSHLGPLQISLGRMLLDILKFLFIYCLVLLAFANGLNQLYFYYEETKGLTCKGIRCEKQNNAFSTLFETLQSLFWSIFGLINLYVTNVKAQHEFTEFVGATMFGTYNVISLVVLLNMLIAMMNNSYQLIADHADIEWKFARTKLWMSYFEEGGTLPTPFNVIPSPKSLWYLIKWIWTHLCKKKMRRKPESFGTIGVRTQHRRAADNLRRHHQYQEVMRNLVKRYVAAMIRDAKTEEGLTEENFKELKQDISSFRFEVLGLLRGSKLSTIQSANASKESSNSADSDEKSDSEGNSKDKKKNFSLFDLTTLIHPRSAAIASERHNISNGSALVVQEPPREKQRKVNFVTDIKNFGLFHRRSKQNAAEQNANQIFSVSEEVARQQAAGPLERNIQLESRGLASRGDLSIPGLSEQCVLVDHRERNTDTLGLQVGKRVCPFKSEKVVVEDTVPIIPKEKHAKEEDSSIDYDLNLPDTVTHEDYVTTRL
Kind of experiment: TRPC4 FLIPR Assay (HEK-TREx hTRPC4, Englerin A stimulation). Type of experiment: cell-based. Particulars: Table 9; HEK-TREx hTRPC4; read-out: hTRPC4-FLIPR IC50. In outline: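 Tetracycline-induced (1 μg/ml) HEK-TREx hTRPC4 cells in EBSS, calcium dye-loaded; compound pre-incubated 5 min, then 100 nM Englerin A added and fluorescence followed 5 min on FLIPR.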
As to `C[C@@H](c1ccccc1C(F)(F)F)N1CCN(c2cn[nH]c(=O)c2Cl)CC1=O` [drawing 1044], the IC50 was 0.01 to 1000 nM.

As to `C[C@H](c1ccc(F)cc1C(F)(F)F)N1C[C@@H](C)N(c2cn[nH]c(=O)c2Cl)CC1=O` [drawing 1048], the IC50 lay within 0.01 to 1000 nM.

For `C[C@@H](c1ccc(F)cc1C(F)(F)F)N1CCN(c2cn[nH]c(=O)c2Cl)CC1=O` [drawing 1049], the IC50 is 0.01 to 1000 nM.

Staying with this experiment, now noted: Table 10; HEK-TREx hTRPC4; read-out: TRPC4-FLIPR ICSO.
Turning to `CCS(=O)(=O)c1nc2c(n1Cc1ccccc1C(F)(F)F)CCN(c1cn[nH]c(=O)c1Cl)C2` [drawing 1079], the IC50 lay in the range of 0.01 to 1000 nM.

For `C[C@@H]1Cc2c(nnn2[C@@H](C)c2ccc(F)cc2C(F)(F)F)CN1c1cn[nH]c(=O)c1Cl` [drawing 1085], the IC50 is 0.01 to 1000 nM.

Consider `C[C@@H]1Cc2c(c(C(N)=O)nn2Cc2ccccc2C(F)(F)F)CN1c1cn[nH]c(=O)c1Cl` [drawing 1118], for which the IC50 was 0.01 to 1000 nM.

Turning to `C[C@@H](c1ccccc1C(F)F)n1nnc2c1CCN(c1cn[nH]c(=O)c1Cl)C2` [drawing 1106], the IC50 lay within 0.01 to 1000 nM.

`COCc1ncccc1Cn1cnc2c1CCN(c1cn[nH]c(=O)c1Cl)C2` [drawing 1065]: the IC50 lay within 1000 to 5000 nM.

With `O=c1[nH]ncc(N2CCc3c(c(=O)[nH]n3Cc3ccccc3C(F)(F)F)C2)c1Cl` [drawing 1081], the IC50 is 0.01 to 1000 nM.

Consider `O=c1[nH]ncc(N2CCc3c(ncn3Cc3ccccc3Cl)C2)c1Cl` [drawing 1139], for which the IC50 lay within 0.01 to 1000 nM.

Take `CS(=O)(=O)c1nc2c(n1Cc1ccccc1C(F)(F)F)CCN(c1cn[nH]c(=O)c1Cl)C2` [drawing 1142]: the IC50 lay in the range of 0.01 to 1000 nM.

For `C[C@H](c1ccc(F)cc1C(F)(F)F)n1nnc2c1CCN(c1cn[nH]c(=O)c1Cl)[C@H]2C` [drawing 1092], the IC50 lay within 0.01 to 1000 nM.

With `COC[C@H](c1ccccc1C(F)(F)F)n1cnc2c1CCN(c1cn[nH]c(=O)c1Cl)C2` [drawing 1120], the IC50 was in the range of 0.01 to 1000 nM.

Consider `CC(c1ccc(F)cc1C(F)F)n1nc(C(N)=O)c2c1CCN(c1cn[nH]c(=O)c1Cl)C2` (centres unmarked) [drawing 1114], for which the IC50 was in the range of 0.01 to 1000 nM.

On to `C[C@H](c1ccccc1C(F)(F)F)n1nnc2c1CCN(c1cn[nH]c(=O)c1Cl)[C@H]2C` [drawing 1078], for which the IC50 lay in the range of 0.01 to 1000 nM.

Consider `C[C@@H]1Cc2c(nnn2[C@@H](C)c2ccccc2C(F)(F)F)CN1c1cn[nH]c(=O)c1Cl` [drawing 1071], for which the IC50 was in the range of 0.01 to 1000 nM.

For the compound `CN(c1ncc2c(n1)CN(c1cn[nH]c(=O)c1Cl)C2)c1ccc(F)cc1Cl` [drawing 1144], the IC50 was in the range of 0.01 to 1000 nM.

As to `O=c1[nH]ncc(N2CCc3c(nnn3Cc3ccc(F)cc3CC(F)(F)F)C2)c1Cl` [drawing 1131], the IC50 fell in the range of 0.01 to 1000 nM.

As for `CCc1ncccc1N(C)c1ncc2c(n1)CN(c1cn[nH]c(=O)c1Cl)C2` [drawing 1154], the IC50 was in the range of 0.01 to 1000 nM.

As for `O=c1[nH]ncc(N2CCc3c(ncn3Cc3ccc(F)cc3Cl)C2)c1Cl` [drawing 1136], the IC50 is 0.01 to 1000 nM.

With `CNC(=O)c1nn(Cc2ccc(F)cc2C(F)F)c2c1CN(c1cn[nH]c(=O)c1Cl)CC2` [drawing 1117], the IC50 lay within 0.01 to 1000 nM.

On to `C[C@H](c1ccccc1C(F)(F)F)n1nc(C(N)=O)c2c1CCN(c1cn[nH]c(=O)c1Cl)C2` [drawing 1123], for which the IC50 fell in the range of 0.01 to 1000 nM.

With `COCc1ccccc1Cn1cnc2c1CCN(c1cn[nH]c(=O)c1Cl)C2` [drawing 1053], the IC50 lay within 0.01 to 1000 nM.

In the case of `CNC(=O)c1nn([C@H](C)c2ccccc2C(F)F)c2c1CN(c1cn[nH]c(=O)c1Cl)CC2` [drawing 1113], the IC50 lay within 0.01 to 1000 nM.

Turning to `[2H]c1nc2c(n1Cc1ccccc1C(F)(F)F)CCN(c1cn[nH]c(=O)c1Cl)C2`, the IC50 fell in the range of 0.01 to 1000 nM.

As for `C[C@@H](c1cccnc1CC(F)F)n1nnc2c1CCN(c1cn[nH]c(=O)c1Cl)C2` [drawing 1125], the IC50 is 0.01 to 1000 nM.

With `CCN(c1ncc2c(n1)CN(c1cn[nH]c(=O)c1Cl)C2)c1ccccc1Cl` [drawing 1148], the IC50 was in the range of 0.01 to 1000 nM.

As to `C[C@H](c1ccccc1C(F)F)n1nnc2c1CCN(c1cn[nH]c(=O)c1Cl)C2` [drawing 1100], the IC50 fell in the range of 0.01 to 1000 nM.

On to `C[C@@H](c1ccc(F)cc1C(F)F)n1nnc2c1CCN(c1cn[nH]c(=O)c1Cl)C2` [drawing 1107], for which the IC50 lay in the range of 0.01 to 1000 nM.

In the case of `C[C@@H](c1ccccc1Cl)n1nnc2c1CCN(c1cn[nH]c(=O)c1Cl)C2` [drawing 1140], the IC50 fell in the range of 0.01 to 1000 nM.

Take `O=c1[nH]ncc(N2CCc3c(Cc4ccc(F)cc4C(F)(F)F)n[nH]c3C2)c1Cl` [drawing 1153]: the IC50 was in the range of 0.01 to 1000 nM.

Regarding `C[C@H](c1ccc(F)cc1C(F)F)n1nc(C(N)=O)c2c1CCN(c1cn[nH]c(=O)c1Cl)C2`, the IC50 lay in the range of 0.01 to 1000 nM.

`CNC(=O)c1nc2c(n1Cc1ccccc1C(F)(F)F)CCN(c1cn[nH]c(=O)c1Cl)C2` [drawing 1134]: the IC50 was in the range of 0.01 to 1000 nM.

In the case of `NC(=O)c1nc2c(n1Cc1ccccc1C(F)(F)F)CCN(c1cn[nH]c(=O)c1Cl)C2` [drawing 1135], the IC50 was in the range of 0.01 to 1000 nM.

As for `C[C@H](c1ccccc1Cl)n1nnc2c1CCN(c1cn[nH]c(=O)c1Cl)C2` [drawing 1133], the IC50 is 0.01 to 1000 nM.
